The nature of data set [1]: Stability of acidified, lyophilized PACAP 66 in DMSO at 40° C. The class given is physicochemical. Particulars: for PACAP 66 degraded: 2 weeks. As for the experimental part:
Several acid solutions were prepared at 0.1%, including HCl, trifluoro acetic acid (TFA), and H3PO4 and cooled to 2-8° C. The cold acid solutions were then mixed with PACAP 66 at a PACAP 66:acid molar ratio of 1:10. After mixing, the cold PACAP 66 solutions were immediately placed inside a precooled freeze-drier and were lyophilized. The lyophilized material was further equilibrated in a desiccator containing P2O5 for at least one day to absorb additional moisture from the lyophilized peptide. The acidified and dried material was then dissolved in DMSO at 2 mg/mL and stability was conducted as described in the upper section.
The recovery of HCl-acidified PACAP 66 at the end of a 2-week period was 97% by RP-HPLC. However, the recovery could be slightly overestimated, as the corresponding purity of PACAP 66 in the sample was only 89% by RP-HPLC.
We understand that peptides can be hydrolyzed readily under acidic conditions in an aqueous solution. […] In the acidification of PACAP 66, the pH of acidified PACAP 66 solution was measured to be 2.2 after addition of TFA. At this pH, PACAP 66 should be rapidly hydrolyzed.

Data set [2] in a line: Solubility of peptide in organic solvents. Particulars: some organic solvents. In kind it is physicochemical.
Data set [3] can be described thus: Stability of PACAP 66 solution at 20 mg/mL in 1-methyl-2-pyrrolinidone at 40° C. The class given is physicochemical. Particulars: acidified samples. An excerpt:
(§1) To test whether a metal salt would stabilize PACAP 66 at a high peptide concentration in an organic solvent, a high concentration of a metal salt would be required, assuming a fixed ratio of metal and peptide is needed for stabilization. A metal salt, however, has limited solubility in an organic solvent Therefore, a similar preparation method was adopted for sample preparation of peptide-metal mixtures at high concentrations, as described under Acidification and Lyophilization of PACAP 66, supra. Briefly, a metal salt and the peptide were first dissolved at a fixed molar ratio in an aqueous solution. The solution was then aliquoted in 3-mL glass vials at a fixed volume and lyophilized. Stability samples were prepared by adding a fixed amount of an organic solvent in the vial. The sample vials were then capped, sealed, and incubated at 40° C. Stability samples were first diluted to a reasonable concentration before analysis by RP-HPLC or CE. Similarly, a peptide suspension was prepared by mixing a proper amount of an organic solvent in a sample vial containing the lyophilized mixture and incubated at 40° C. Stability of solid PACAP 66 was evaluated directly by incubating the sample vial containing the lyophilized mixture at 40° C.
PACAP 66 in the sample was acidified in the absence and presence of ZnCl2.

Data set [4] in a line: Stability of PACAP 66 in a lyophilized state at 40° C. The class given is physicochemical.
Source text: as §1

Data set [5] in a line: Stability of PACAP 66 solution at 300 mg/mL in DMSO at 40° C. The class given is physicochemical. To be noted: 23 weeks.
Source text: as §1
PACAP 66 in the sample was acidified in the absence and presence of ZnCl2. Approximately 70% of the peptide was degraded in the control sample after storage for 23 weeks, while approximately 20% was degraded in the acidified samples in the presence or absence of ZnCl2.

Data set [6] in a line: Stability of PACAP 66 suspension at 20 mg/mL in 2-propanol at 40° C. In kind it is physicochemical. To be noted: suspension 20 mg/mL in 2-propanol.
Source text: as §1

A short description of data set [7]: Stability of PACAP 66 in DMSO at 40° C. in the presence of different metal salts (RP-HPLC recovery, CE purity). Particulars: 2 mg/mL; for PACAP 66 degraded: 4 weeks, RP-HPLC. The class given is physicochemical. On the procedure:
Different metal salts, including ZnCl2, MgCl2, and CaCl2 were separately dissolved at 1 mM in DMSO, a non-aqueous organic solvent. PACAP 66 was then dissolved in these solutions at 2 mg/mL. The bulk solution was aliquoted into 2-mL screw-capped (with an o-ring) sterile polypropylene vials. These stability samples were incubated at 40° C. and analyzed at predetermined intervals.
More than 70% of PACAP 66 was degraded in DMSO in 4 weeks at 40° C. by RP-HPLC, but only approximately 10% of PACAP 66 was degraded in the presence of 1 mM ZnCl2 under the same storage conditions. […] The CE results were similar to the findings from the RP-HPLC analysis.

The nature of data set [8]: Stability of peptide in an aqueous solution. The class given is physicochemical.
The conditions of data set [9]: pH 4; cited from earlier work.

Ends that are not written are not given here.

For the substance “HSDAVFTDNYTRLRKQVAAKKYLQSIKNKRY [PACAP 66]”, the “PACAP 66 degraded” value in [1] (acidified (HCl, TFA or H3PO4) and lyophilized PACAP 66, DMSO 2 mg/mL) was “less than 10%”; in data set [1] (unprocessed PACAP 66 (control), DMSO 2 mg/mL), “More than 50%”; in data set [7] (1 mM ZnCl2), “approximately 10%”; in [7] (control without metal salt), “More than 70%”. Further, the “relative stabilization effect by acids” value in data set [1] (acidified and lyophilized PACAP 66 in DMSO) is given as “HCl >TFA >H3PO4”. Moreover, the “solubility in organic solvents” value in data set [2] is “dissolved easily”. The “effect of addition of ZnCl2 on stability” value is “seems to stabilize PACAP 66 to a higher degree” in [3] and “seems to stabilize the peptide to a higher degree” in data set [4] (acidified). Moreover, the “effect of acidification on stability during storage” value in data set [4] is recorded as “significantly stabilized the peptide”. In addition, the peptide degraded entry in data set [5] (acidified (HCl), absence of ZnCl2) is “approximately 20%”; in data set [5] (acidified (HCl), presence of ZnCl2) it was “approximately 20%”; in [5] (control sample), “Approximately 70%”. In data set [6], the “effect of addition of ZnCl2 on storage stability” value is “significantly improved the storage stability”. Also, the “stabilizing effect compared with the control” value in data set [7] (1 mM CaCl2) and in data set [7] (1 mM MgCl2) was “did not have any significant stabilizing effect” in each case. Further, in data set [8] (aqueous solution, 40° C., zinc, magnesium or calcium), the “effect of different metals on stability” value is reported as “does not improve its stability”. The “effect of zinc oxide on stability” value in [8] (aqueous solution, zinc oxide at 10 mM (FIG. 1)) is recorded as “did not stabilize”. In data set [8] (aqueous, 40° C. (FIG. 1)), the “stability in an aqueous environment” value is “not stable”.

Take Secretin: a PACAP-like peptide: the “stability in an aqueous solution” value in data set [9] is listed as “can be degraded easily”.
